Values quoted from earlier work, collected in patent publication US7273620B1, “Triggered release of liposomal drugs following mixing of cationic and anionic liposomes” (University of British Columbia, priority 2002, dated 2007).

Details: from LUV; depends on acyl chain length of ceramide anchor

In the case of “1-O-(2′-(ω-methoxypolyethylene-glycol)succinoyl)-2-N-myristoylsphyngosine [PEG-CerC14]”, the “dissociation rate of PEG-Ceramide” value is given as 1.2 h.
